Values after ≈ are worked out from the molar mass of the structure shown.
How the values were obtained:
[1] = Ratio of drug concentration in brain to plasma in C57BL/6 mouse at 10 mg/kg, po measured at 3 hrs; assay type: ADME, organism-based; settings: read-out: BPR
[2] = target: 3',5'-cyclic-AMP phosphodiesterase 4D (Homo sapiens, UniProt Q08499); test: Inhibition of PDE4D (unknown origin)
[3] = Ratio of drug concentration in brain to plasma in C57BL/6 mouse at 30 mg/kg, po measured at 3 hrs; assay type: ADME, organism-based; settings: read-out: BPR
Cytochrome P450 2D6 = Cytochrome P450 2D6 (Homo sapiens, UniProt P10635); test: Inhibition of CYP2D6 (unknown origin); assay type: ADME
Sequence of Cytochrome P450 2D6 (P10635 whole entry): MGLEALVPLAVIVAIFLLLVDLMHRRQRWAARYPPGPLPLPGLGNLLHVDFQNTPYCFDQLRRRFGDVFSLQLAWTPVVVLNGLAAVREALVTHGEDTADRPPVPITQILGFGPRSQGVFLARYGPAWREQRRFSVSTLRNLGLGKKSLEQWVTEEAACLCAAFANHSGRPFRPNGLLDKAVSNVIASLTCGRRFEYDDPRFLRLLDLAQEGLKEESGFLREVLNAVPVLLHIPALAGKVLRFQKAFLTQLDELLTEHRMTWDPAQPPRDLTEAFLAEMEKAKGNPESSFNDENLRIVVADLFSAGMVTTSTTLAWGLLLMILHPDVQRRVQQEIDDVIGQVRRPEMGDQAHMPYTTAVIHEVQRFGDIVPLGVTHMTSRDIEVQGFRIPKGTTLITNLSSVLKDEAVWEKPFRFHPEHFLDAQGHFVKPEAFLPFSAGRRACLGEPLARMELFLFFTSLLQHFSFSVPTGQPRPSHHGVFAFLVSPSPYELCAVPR

[4] = Phototoxicity against mouse BALB/3T3 clone A31 cells assessed as reduction in cell viability incubated for 1 hr followed by irradiated with 5 J/cm^2 of light dose measured after 24 hrs by neutral red uptake assay; assay type: toxicity, cell-based; settings: balb/3t3 clone a31, 1 h
[5] = MRT(0 to t) in C57BL/6 mouse at 1 mg/kg, iv and 3 mg/kg, ip measured upto 24 hrs by HPLC-MS analysis; assay type: ADME, organism-based; settings: in vivo
[6] = AUC(0 to t) in C57BL/6 mouse at 1 mg/kg, iv measured upto 24 hrs by HPLC-MS analysis; assay type: ADME, organism-based; design: time < 24 hrs, dose 1 mg/kg, route iv; settings: in vivo
[7] = Half life in Sprague-Dawley rat at 3 mg/kg, po and 1 mg/kg, iv measured upto 24 hrs by HPLC-MS analysis; assay type: ADME, organism-based; settings: in vivo
[8] = Volume of distribution at steady state in C57BL/6 mouse at 1 mg/kg, iv and 3 mg/kg, ip measured upto 24 hrs by HPLC-MS analysis; assay type: ADME, organism-based; settings: in vivo, read-out: Vdss
[9] = Ratio of drug concentration in brain to plasma in C57BL/6 mouse at 30 mg/kg, po measured at 1 hr; assay type: ADME, organism-based; settings: brain and plasma, read-out: BPR
[10] = Bioavailability in C57BL/6 mouse at 1 mg/kg, iv and 3 mg/kg, ip measured upto 24 hrs by HPLC-MS analysis; assay type: ADME, organism-based; settings: in vivo
[11] = Metabolic stability in rat liver microsomes assessed as intrinsic clearance at 1 uM incubated for 30 mins in presence of NADPH by LC-MS/MS analysis; assay type: ADME, Microsome; settings: read-out: CLH
[12] = target: Serine/threonine-protein kinase mTOR (Mus musculus) (UniProt Q9JLN9); test: Inhibition of mTOR in Tsc1 knockout mouse neurons assessed as reduction in phosphorylated S6 level incubated for 4 hrs by Hoechst staining based immunofluorescence analysis; assay type: cell-based; settings: Neuron, dose 5.0 µM
[13] = target: Phosphatidylinositol 4,5-bisphosphate 3-kinase catalytic subunit beta isoform (Homo sapiens, UniProt P42338); test: Inhibition of PI3Kbeta (unknown origin)
Sequence of Phosphatidylinositol 4,5-bisphosphate 3-kinase catalytic subunit beta isoform (P42338 whole entry, canonical isoform): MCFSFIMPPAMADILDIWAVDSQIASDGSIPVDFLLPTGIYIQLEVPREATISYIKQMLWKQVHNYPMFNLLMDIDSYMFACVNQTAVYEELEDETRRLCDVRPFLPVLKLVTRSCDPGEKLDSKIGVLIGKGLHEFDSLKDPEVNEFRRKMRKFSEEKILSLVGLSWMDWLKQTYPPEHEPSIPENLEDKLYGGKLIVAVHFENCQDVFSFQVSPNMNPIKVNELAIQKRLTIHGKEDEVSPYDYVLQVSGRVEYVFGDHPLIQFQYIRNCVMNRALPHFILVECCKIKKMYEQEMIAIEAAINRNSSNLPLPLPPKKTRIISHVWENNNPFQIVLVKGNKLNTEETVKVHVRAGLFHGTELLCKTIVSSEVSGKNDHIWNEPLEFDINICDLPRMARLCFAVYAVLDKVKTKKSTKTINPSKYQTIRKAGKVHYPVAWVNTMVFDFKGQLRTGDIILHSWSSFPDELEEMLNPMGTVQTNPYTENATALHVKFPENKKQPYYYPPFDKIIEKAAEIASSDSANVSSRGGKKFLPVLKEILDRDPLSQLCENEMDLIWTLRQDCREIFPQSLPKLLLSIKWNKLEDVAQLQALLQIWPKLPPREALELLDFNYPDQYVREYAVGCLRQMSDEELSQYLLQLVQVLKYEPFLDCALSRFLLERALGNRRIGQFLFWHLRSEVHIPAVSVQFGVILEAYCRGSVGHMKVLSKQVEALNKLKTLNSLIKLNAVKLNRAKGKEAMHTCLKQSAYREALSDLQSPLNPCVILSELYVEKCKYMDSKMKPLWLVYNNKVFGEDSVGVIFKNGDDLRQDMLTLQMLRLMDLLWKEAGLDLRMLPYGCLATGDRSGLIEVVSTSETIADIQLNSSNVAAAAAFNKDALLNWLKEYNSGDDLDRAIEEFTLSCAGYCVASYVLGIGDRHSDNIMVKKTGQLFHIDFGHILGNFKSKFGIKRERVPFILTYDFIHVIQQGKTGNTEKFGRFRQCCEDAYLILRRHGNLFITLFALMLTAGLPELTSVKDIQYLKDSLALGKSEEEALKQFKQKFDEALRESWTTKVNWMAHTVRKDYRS

[14] = Metabolic stability in mouse liver microsomes assessed as intrinsic clearance at 1 uM incubated for 30 mins in presence of NADPH by LC-MS/MS analysis; assay type: ADME, Microsome; settings: read-out: CLH
Cytochrome P450 3A4 [15] = target: T1, Cytochrome P450 3A4 (Homo sapiens, UniProt P08684); test: Inhibition of CYP3A4 (unknown origin) assessed as Kobs; assay type: ADME
T1 sequence (P08684 whole entry): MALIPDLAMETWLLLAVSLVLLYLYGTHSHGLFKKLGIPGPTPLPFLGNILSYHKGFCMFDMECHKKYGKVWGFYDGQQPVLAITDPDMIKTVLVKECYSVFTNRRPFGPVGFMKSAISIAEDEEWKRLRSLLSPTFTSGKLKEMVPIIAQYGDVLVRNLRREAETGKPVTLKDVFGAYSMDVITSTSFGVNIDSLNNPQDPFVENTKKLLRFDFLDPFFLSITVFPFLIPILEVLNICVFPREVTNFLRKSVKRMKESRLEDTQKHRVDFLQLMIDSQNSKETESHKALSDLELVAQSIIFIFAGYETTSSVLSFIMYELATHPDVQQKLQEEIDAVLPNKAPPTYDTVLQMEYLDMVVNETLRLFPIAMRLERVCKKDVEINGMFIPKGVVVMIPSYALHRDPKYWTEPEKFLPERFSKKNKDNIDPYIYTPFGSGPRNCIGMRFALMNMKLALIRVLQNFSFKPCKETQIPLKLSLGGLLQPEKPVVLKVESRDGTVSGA

[16] = Drug concentration in C57BL/6 mouse plasma at 30 mg/kg, po measured after 1 hr; assay type: ADME, organism-based
[17] = Tmax in Sprague-Dawley rat at 3 mg/kg, po and 1 mg/kg, iv measured upto 24 hrs by HPLC-MS analysis; assay type: ADME, organism-based; settings: in vivo
[18] = Drug concentration in C57BL/6 mouse plasma at 10 mg/kg, po measured after 3 hrs; assay type: ADME, organism-based
Cytochrome P450 2C9 = Cytochrome P450 2C9 (Homo sapiens, UniProt P11712); test: Inhibition of CYP2C9 (unknown origin); assay type: ADME
Sequence of Cytochrome P450 2C9 (P11712 whole entry): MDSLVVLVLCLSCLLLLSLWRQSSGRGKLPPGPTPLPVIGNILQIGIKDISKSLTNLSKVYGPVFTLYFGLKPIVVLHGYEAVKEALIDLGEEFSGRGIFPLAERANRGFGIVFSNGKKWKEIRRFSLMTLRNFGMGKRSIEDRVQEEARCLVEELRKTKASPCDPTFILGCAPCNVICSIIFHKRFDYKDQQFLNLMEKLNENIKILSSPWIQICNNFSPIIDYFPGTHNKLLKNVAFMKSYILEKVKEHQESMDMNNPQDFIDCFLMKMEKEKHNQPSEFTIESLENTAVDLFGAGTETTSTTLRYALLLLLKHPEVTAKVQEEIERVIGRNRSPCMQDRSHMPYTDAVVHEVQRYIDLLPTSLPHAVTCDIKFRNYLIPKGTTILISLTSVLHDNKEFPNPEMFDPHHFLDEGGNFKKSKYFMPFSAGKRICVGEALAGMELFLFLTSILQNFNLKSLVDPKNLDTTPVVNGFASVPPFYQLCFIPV

[19] = Ratio of drug concentration in brain to plasma in C57BL/6 mouse at 10 mg/kg, po measured at 1 hr; assay type: ADME, organism-based; settings: brain and plasma, read-out: BPR
Cytochrome P450 3A4 [20] = target: T1, Cytochrome P450 3A4; test: Inhibition of CYP3A4 (unknown origin); assay type: ADME
[21] = MRT(0 to t) in Sprague-Dawley rat at 3 mg/kg, po and 1 mg/kg, iv measured upto 24 hrs by HPLC-MS analysis; assay type: ADME, organism-based; settings: in vivo
[22] = Apparent permeability across apical to basolateral side in MDCK-MDR1 cells; assay type: ADME, cell-based, Canis lupus familiaris; settings: dog
[23] = Cmax in po dosed C57BL/6 mouse measured upto 24 hrs by HPLC-MS analysis; assay type: ADME, organism-based; design: time < 24 hrs, route po; settings: in vivo
[24] = Solubility of compound at pH 6.8; assay type: physicochemical; settings: buffer
[25] = Cmax in Sprague-Dawley rat at 3 mg/kg, po measured upto 24 hrs by HPLC-MS analysis; assay type: ADME, organism-based; design: dose 3 mg/kg, time < 24 hrs, route po; settings: in vivo
[26] = Half life in C57BL/6 mouse at 1 mg/kg, iv and 3 mg/kg, ip measured upto 24 hrs by HPLC-MS analysis; assay type: ADME, organism-based; settings: in vivo
[27] = Drug concentration in C57BL/6 mouse brain at 30 mg/kg, po measured after 3 hrs; assay type: ADME, organism-based; settings: read-out: Ct
[28] = target: Phosphatidylinositol 4,5-bisphosphate 3-kinase catalytic subunit gamma isoform (Homo sapiens, UniProt P48736); test: Inhibition of PI3Kgamma (unknown origin)
Sequence of Phosphatidylinositol 4,5-bisphosphate 3-kinase catalytic subunit gamma isoform (P48736 whole entry, canonical isoform): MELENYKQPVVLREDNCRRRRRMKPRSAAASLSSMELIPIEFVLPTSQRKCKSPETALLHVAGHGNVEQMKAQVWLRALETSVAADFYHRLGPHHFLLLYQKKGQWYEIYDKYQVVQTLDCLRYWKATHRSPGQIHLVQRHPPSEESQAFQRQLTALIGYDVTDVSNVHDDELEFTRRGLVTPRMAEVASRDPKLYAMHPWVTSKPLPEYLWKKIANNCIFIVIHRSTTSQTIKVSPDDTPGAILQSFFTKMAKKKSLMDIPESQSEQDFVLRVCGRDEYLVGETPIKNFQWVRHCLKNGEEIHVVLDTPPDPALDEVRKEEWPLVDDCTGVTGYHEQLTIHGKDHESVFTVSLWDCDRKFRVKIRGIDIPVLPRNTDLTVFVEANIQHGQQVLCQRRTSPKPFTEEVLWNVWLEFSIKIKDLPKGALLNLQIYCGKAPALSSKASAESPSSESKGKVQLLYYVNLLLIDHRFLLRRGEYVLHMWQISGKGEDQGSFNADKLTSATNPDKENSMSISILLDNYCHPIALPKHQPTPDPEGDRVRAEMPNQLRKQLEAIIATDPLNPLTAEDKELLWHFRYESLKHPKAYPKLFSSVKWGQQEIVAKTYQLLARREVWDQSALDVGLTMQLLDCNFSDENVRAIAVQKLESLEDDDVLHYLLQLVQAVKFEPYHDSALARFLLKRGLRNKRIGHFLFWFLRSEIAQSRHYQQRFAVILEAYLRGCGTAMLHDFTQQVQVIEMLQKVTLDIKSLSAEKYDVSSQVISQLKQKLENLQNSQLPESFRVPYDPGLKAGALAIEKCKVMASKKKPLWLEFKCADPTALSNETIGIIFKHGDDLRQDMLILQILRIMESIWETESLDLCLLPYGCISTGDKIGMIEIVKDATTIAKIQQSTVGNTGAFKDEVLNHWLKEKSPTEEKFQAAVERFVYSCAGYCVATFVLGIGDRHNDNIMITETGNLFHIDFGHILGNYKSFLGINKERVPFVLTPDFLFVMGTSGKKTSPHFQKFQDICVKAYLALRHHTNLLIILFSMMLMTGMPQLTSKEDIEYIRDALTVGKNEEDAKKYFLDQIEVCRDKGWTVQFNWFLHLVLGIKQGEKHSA

[29] = Drug concentration in C57BL/6 mouse plasma at 10 mg/kg, po measured after 24 hrs; assay type: ADME, organism-based
[30] = Protein binding in Sprague-Dawley rat brain at 5 uM measured for 4 hrs by equilibrium dialysis method based LC/MS/MS analysis; assay type: ADME, tissue-based; settings: read-out: PB (converted)
[31] = Bioavailability in Sprague-Dawley rat at 3 mg/kg, po and 1 mg/kg, iv measured upto 24 hrs by HPLC-MS analysis; assay type: ADME, organism-based; settings: in vivo
[32] = Metabolic stability in dog liver microsomes assessed as intrinsic clearance at 1 uM incubated for 30 mins in presence of NADPH by LC-MS/MS analysis; assay type: ADME, Canis lupus familiaris, Microsome; settings: read-out: CLH
[33] = Ratio of drug concentration in brain to plasma in Sprague-Dawley rat at 3 mg/kg, po measured at 1 hr by HPLC-MS analysis; assay type: ADME, organism-based; settings: brain and plasma, read-out: BPR
[34] = Genotoxicity in human TK6 cells assessed as micronuclei formation by micronucleus test; assay type: toxicity, cell-based
[35] = Drug concentration in C57BL/6 mouse plasma at 30 mg/kg, po measured after 3 hrs; assay type: ADME, organism-based
[36] = AUC(0 to t) in C57BL/6 mouse at 3 mg/kg, ip measured upto 24 hrs by HPLC-MS analysis; assay type: ADME, organism-based; design: time < 24 hrs, dose 3 mg/kg, route ip; settings: in vivo
[37] = Drug concentration in C57BL/6 mouse brain at 10 mg/kg, po measured after 3 hrs; assay type: ADME, organism-based; settings: read-out: Ct
[38] = Volume of distribution at steady state in Sprague-Dawley rat at 3 mg/kg, po and 1 mg/kg, iv measured upto 24 hrs by HPLC-MS analysis; assay type: ADME, organism-based; settings: in vivo
[39] = Drug concentration in C57BL/6 mouse brain at 30 mg/kg, po measured after 24 hrs; assay type: ADME, organism-based; settings: read-out: Ct
[40] = Genotoxicity in human TK6 cells assessed as micronuclei formation in presence of S9 fraction by micronucleus test; assay type: toxicity, subcellular
[41] = Drug concentration in C57BL/6 mouse brain at 30 mg/kg, po measured after 1 hr; assay type: ADME, organism-based; settings: read-out: Ct
[42] = Drug concentration in C57BL/6 mouse plasma at 30 mg/kg, po measured after 24 hrs; assay type: ADME, organism-based
[43] = AUC(0 to t) in Sprague-Dawley rat at 3 mg/kg, po measured upto 24 hrs by HPLC-MS analysis; assay type: ADME, organism-based; design: dose 3 mg/kg, time < 24 hrs, route po; settings: in vivo

Sequence of 3',5'-cyclic-AMP phosphodiesterase 4D (Q08499 whole entry): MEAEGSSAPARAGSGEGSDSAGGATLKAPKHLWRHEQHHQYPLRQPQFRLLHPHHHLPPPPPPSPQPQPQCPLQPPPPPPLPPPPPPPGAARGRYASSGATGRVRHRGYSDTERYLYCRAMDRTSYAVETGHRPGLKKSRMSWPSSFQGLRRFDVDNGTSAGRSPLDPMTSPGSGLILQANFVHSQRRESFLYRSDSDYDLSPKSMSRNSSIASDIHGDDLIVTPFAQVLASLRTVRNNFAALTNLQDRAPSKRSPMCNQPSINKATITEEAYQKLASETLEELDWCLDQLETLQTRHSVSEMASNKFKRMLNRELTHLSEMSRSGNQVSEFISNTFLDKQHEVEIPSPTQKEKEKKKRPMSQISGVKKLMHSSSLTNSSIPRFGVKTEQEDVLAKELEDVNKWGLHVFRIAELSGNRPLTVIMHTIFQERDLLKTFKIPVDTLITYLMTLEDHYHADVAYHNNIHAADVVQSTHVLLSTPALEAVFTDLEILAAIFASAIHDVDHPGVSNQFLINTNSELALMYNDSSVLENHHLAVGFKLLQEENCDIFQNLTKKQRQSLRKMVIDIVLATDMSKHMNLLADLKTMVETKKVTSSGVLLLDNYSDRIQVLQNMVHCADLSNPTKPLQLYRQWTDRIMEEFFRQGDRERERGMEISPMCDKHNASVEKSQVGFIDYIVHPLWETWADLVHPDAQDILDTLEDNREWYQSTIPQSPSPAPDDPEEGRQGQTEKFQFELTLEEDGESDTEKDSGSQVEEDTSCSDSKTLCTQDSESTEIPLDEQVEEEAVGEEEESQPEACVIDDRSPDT

Structure (SMILES): C[C@@H]1COCCN1c1cc(N2CCOC[C@@H]2C)nc2[nH]c(-c3ccccn3)nc12
- Kp at 3 h [1]: 0.51
- IC50 [2]: 17 µM
- Kp at 3 h [3]: 0.65
- IC50 (Cytochrome P450 2D6): > 50 µM
- Activity [4]: Non-Toxic
- MRT last at 24 h [5]: 2.3 h
- AUC(0-t) at 24 h ([6]; C57BL/6, mouse): 2.22 µM·h
- half-life [7]: 2.6 h
- Vd [8]: 2.6 L/kg
- Kp at 1 h [9]: 1.03
- bioavailability [10]: 98%
- microsomal CLint at 1 µM [11]: 27 µL/min/mg
- inhibition [12]: Dose-Dependent Effect
- IC50 [13]: > 10 µM
- microsomal CLint at 1 µM [14]: 24 µL/min/mg
- Kobs (Cytochrome P450 3A4 [15]): 0.032 min⁻¹
- concentration at 1 h [16]: 3.93 µM
- Tmax [17]: 1.3 h
- concentration at 3 h [18]: 2.16 µM
- IC50 (Cytochrome P450 2C9): > 50 µM
- Kp at 1 h [19]: 0.6
- IC50 (Cytochrome P450 3A4 [20]): > 50 µM
- MRT last at 24 h [21]: 2.3 h
- Papp A→B [22]: 415 nm/s
- Cmax [23]: 1.26 µM
- solubility [24]: 0.18 mg/mL (≈ 456 µM)
- Cmax [25]: 5.05 µM
- half-life [26]: 2 h
- concentration at 3 h [27]: 2.72 µM
- IC50 [28]: > 10 µM
- concentration at 24 h [29]: 0.004 µM
- fraction unbound at 4 h, 5 µM [30]: 0.035
- bioavailability [31]: 122%
- microsomal CLint at 1 µM [32]: 19 µL/min/mg
- Kp at 1 h [33]: 0.72
- Activity [34]: Non-Toxic
- concentration at 3 h [35]: 4.16 µM
- AUC(0-t) at 24 h [36]: 6.66 µM·h
- concentration at 3 h [37]: 1.11 µM
- Vdss [38]: 0.7 L/kg
- concentration at 24 h [39]: 0.79 µM
- Activity [40]: Non-Toxic
- concentration at 1 h [41]: 4.05 µM
- concentration at 24 h [42]: 1.12 µM
- AUC(0-t) at 24 h [43]: 29.6 µM·h

Structure (SMILES): C[C@@H]1COCCN1c1cc(N2CCOC[C@@H]2C)nc2[nH]c(-c3cscn3)nc12
- Kp at 3 h [1]: 0.59
- IC50 [2]: 6.3 µM
- Kp at 3 h [3]: 0.75
- IC50 (Cytochrome P450 2D6): > 50 µM
- Activity [4]: Toxic
- MRT last at 24 h [5]: 3.4 h
- AUCt ([6]; mouse, 24 h): 10.377 µM·h
- half-life [7]: 3 h
- Vd [8]: 2.8 L/kg
- Kp at 1 h [9]: 1.29
- bioavailability [10]: 112%
- microsomal CLint at 1 µM [11]: 21 µL/min/mg
- inhibition [12]: Dose-Dependent Effect
- IC50 [13]: > 10 µM
- microsomal CLint at 1 µM [14]: 13 µL/min/mg
- Kobs (Cytochrome P450 3A4 [15]): 0.021 min⁻¹
- concentration at 1 h [16]: 10.2 µM
- Tmax [17]: 1.5 h
- concentration at 3 h [18]: 5.53 µM
- IC50 (Cytochrome P450 2C9): > 50 µM
- Kp at 1 h [19]: 0.97
- IC50 (Cytochrome P450 3A4 [20]): > 50 µM
- MRT last at 24 h [21]: 2.2 h
- Papp A→B [22]: 140 nm/s
- Cmax [23]: 1.92 µM
- solubility [24]: 0.02 mg/mL (≈ 49.9 µM)
- Cmax [25]: 1.73 µM
- half-life [26]: 2.7 h
- concentration at 3 h [27]: 6.32 µM
- IC50 [28]: > 10 µM
- concentration at 24 h [29]: 0.211 µM
- fraction unbound at 4 h, 5 µM [30]: 0.086
- bioavailability [31]: 107%
- microsomal CLint at 1 µM [32]: 10 µL/min/mg
- Kp at 1 h [33]: 0.33
- Activity [34]: Non-Toxic
- concentration at 3 h [35]: 8.42 µM
- AUC(0-t) at 24 h [36]: 11.7 µM·h
- concentration at 3 h [37]: 3.25 µM
- Vdss [38]: 2.3 L/kg
- concentration at 24 h [39]: 4.65 µM
- Activity [40]: Non-Toxic
- concentration at 1 h [41]: 13.1 µM
- concentration at 24 h [42]: 7.02 µM
- AUC(0-t) at 24 h [43]: 6.45 µM·h

— ChEMBL document CHEMBL5331134, “Identification of Brain-Penetrant ATP-Competitive mTOR Inhibitors for CNS Syndromes” (J Med Chem, 2023)
